Test results reported in the supplement of paper PMC8882468.
± gives the standard deviation of the averaged measurements.

Experiments:
Test in all cases: CTG-3D luminescence at 96 h relative to day-0 seeding control (ratio to day 0); higher = more growth / less cytotoxicity; PDxO 3D drug screen, 96 h, CTG-3D normalised to day-0 seeding control.
HCI-023 = test system: HCI-023 (organoid from a triple-negative breast cancer xenograft)
HCI-012 = test system: HCI-012 (organoid from a breast cancer xenograft)
HCI-024 = test system: HCI-024 (organoid from a breast cancer xenograft)
HCI-002 = test system: HCI-002 (organoid from a triple-negative breast cancer xenograft)
HCI-025 = test system: HCI-025 (organoid from a breast cancer xenograft)

CNC(=O)c1cccc(-c2ccc3c(N4CCOC[C@@H]4C)nc(N4CCOC[C@@H]4C)nc3n2)c1 [vistusertib]
CTG-3D luminescence at 96 h
Conditions	12.5 pM	0.00025 µM	0.005 µM	0.1 µM	1 µM	10 µM	100 µM	625 fM
HCI-002, days in culture: 62	2.66	2.61	3.41	2.32	1.07	0.702	0.277	2.99
HCI-002, days in culture: 82	3.06	2.8	2.5	2.33	1.07	0.582	0.259	2.63
HCI-002, days in culture: 91	3.62	3.61	3.38	2.8	1.19	0.884	0.482	3.86
HCI-002, days in culture: 191	2.7	2.8	3.06	2.32	1.41	0.774	0.426	2.78
HCI-002, days in culture: 209	2.32	2.49	2.32	2.03	0.917	0.345	0.219	2.62
HCI-002, days in culture: 227	5.65	5.55	5.27	3.89	1.39	1.12	0.394	5.47
HCI-012, days in culture: 143	2.08	2.14	2.4	1.9	1.14	0.875	0.292	1.87
HCI-012, days in culture: 162	2.68	2.6	1.94	2.8	1.21	1.06	0.318	3.34
HCI-012, days in culture: 201	2.73	1.99	1.53	1.7	1.42	0.57	0.745	1.48
HCI-023, days in culture: 111	1.41	1.27	1.29	1.09	0.468	0.406	0.242	1.5
HCI-023, days in culture: 128	1.83 ± 0.19	1.59 ± 0.24	1.44 ± 0.4	1.27 ± 0.088	0.78 ± 0.029	0.864 ± 0.023	0.541 ± 0.19	1.7 ± 0.29
HCI-024, days in culture: 105	1.75	1.79	1.36	1.28	0.65	0.778	0.554	1.79
HCI-024, days in culture: 122	2.25	2.36	2.05	1.84	0.987	1.07	0.813	2.77
HCI-024, days in culture: 163	1.9	2.22	1.73	2.31	1.19	0.949	0.662	1.95
HCI-025, days in culture: 172	2.8	1.41	1.7	0.95	0.649	0.279	0.41	2.26
HCI-025, days in culture: 209	1.74	2.05	2.28	0.89	0.395	0.287	0.239	2.1
HCI-025, days in culture: 218	1.49	1.78	1.94	0.816	0.249	0.373	0.201	1.44

C[C@]12CC[C@@H]3c4ccc(O)cc4C[C@@H](CCCCCCCCC[S+]([O-])CCCC(F)(F)C(F)(F)F)[C@H]3[C@@H]1CC[C@@H]2O (some centres undefined) [fulvestrant]
CTG-3D luminescence at 96 h
Conditions	12.5 pM	0.00025 µM	0.005 µM	0.1 µM	1 µM	10 µM	100 µM	625 fM
HCI-002, days in culture: 62	2.97	2.65	3.14	2.57	2.65	3.11	2.61	2.86
HCI-002, days in culture: 82	2.97	2.85	2.4	2.79	2.79	2.61	2.5	2.6
HCI-002, days in culture: 91	3.59	3.05	2.86	3.23	2.74	3.39	2.65	3.54
HCI-002, days in culture: 191	2.73	3.1	2.93	2.95	3.38	2.54	2.67	2.7
HCI-002, days in culture: 209	2.15	2.27	2.46	2.23	2.28	1.83	2.35	2.47
HCI-002, days in culture: 227	5.09	4.65	4.95	5.59	4.77	5	4.58	5.27
HCI-012, days in culture: 143	2.28	2.33	2.23	2.41	2.43	2.43	2.25	1.92
HCI-012, days in culture: 162	2.65	2.28	1.8	3.05	2.77	3.17	2.71	2.92
HCI-012, days in culture: 201	2.77	2.3	1.52	1.85	2.21	1.48	2.1	1.53
HCI-023, days in culture: 111	1.5	1.45	1.4	1.27	0.963	1.24	0.911	1.61
HCI-023, days in culture: 128	1.83 ± 0.07	1.54 ± 0.074	1.6 ± 0.056	2.08 ± 0.58	1.33 ± 0.058	1.56 ± 0.41	1.11 ± 0.18	1.75 ± 0.19
HCI-024, days in culture: 105	1.45	1.55	1.32	1.36	1.34	2.02	1.67	1.87
HCI-024, days in culture: 122	2.08	2.51	2.43	1.84	1.77	2.65	1.86	2.53
HCI-024, days in culture: 163	1.83	1.9	1.55	2.47	2.05	1.88	2.09	1.91
HCI-025, days in culture: 172	3.02	1.74	3.7	1.97	1.97	1.21	2.24	2.87
HCI-025, days in culture: 209	1.87	1.6	2.26	1.66	1.8	1.4	1.23	1.44
HCI-025, days in culture: 218	1.47	1.8	1.97	1.54	1.5	1.93	1.21	1.28

CC1(C)CCC(c2ccc(Cl)cc2)=C(CN2CCN(c3ccc(C(=O)NS(=O)(=O)c4ccc(N[C@H](CCN5CCOCC5)CSc5ccccc5)c(S(=O)(=O)C(F)(F)F)c4)cc3)CC2)C1 [navitoclax]
CTG-3D luminescence at 96 h
Conditions	12.5 pM	0.00025 µM	0.005 µM	0.1 µM	1 µM	10 µM	100 µM	625 fM
HCI-002, days in culture: 62	3.12	2.9	3.78	2.92	2.42	1.07	0.00133	3.47
HCI-002, days in culture: 82	3.88	4.28	2.86	2.91	2.86	1.36	0.00885	3.44
HCI-002, days in culture: 91	3.48	2.91	2.21	2.3	1.97	1.73	0.00844	3.14
HCI-002, days in culture: 191	3.36	3.04	3.27	3.13	2.63	1.29	-0.105	3.4
HCI-002, days in culture: 209	2.83	3.07	2.6	2.13	1.85	1.18	-0.00717	2.97
HCI-002, days in culture: 227	5.11	5.2	4.65	4.75	3.73	3.27	0.0214	5.74
HCI-012, days in culture: 143	1.69	2.26	2.2	2.7	2.07	2.21	0.239	1.81
HCI-012, days in culture: 162	2.02	2.3	2.33	2.56	2.17	2.21	0.134	2.94
HCI-012, days in culture: 201	3.09	2.12	1.75	1.93	2.2	0.271	-0.19	1.96
HCI-023, days in culture: 111	1.82	1.42	1.19	1.26	0.739	0.432	0.0151	1.83
HCI-023, days in culture: 128	1.58 ± 0.11	1.8 ± 0.42	1.53 ± 0.12	1.82 ± 0.083	1.1 ± 0.26	0.995 ± 0.043	0.00828 ± 0.0036	1.58 ± 0.21
HCI-024, days in culture: 105	1.44	1.51	1.24	1.47	1.01	1.1	0.182	1.59
HCI-024, days in culture: 122	1.5	2.32	1.85	1.88	1.6	1.52	0.266	2.7
HCI-024, days in culture: 163	1.88	2.19	1.74	2.8	1.99	1.74	0.357	2.54
HCI-025, days in culture: 172	3.28	1.84	2.93	0.781	0.555	-0.249	-0.109	2.63
HCI-025, days in culture: 209	1.95	2.53	2.24	1.27	1.81	0.666	0.00258	2.29
HCI-025, days in culture: 218	1.36	1.87	1.59	1.15	0.81	0.293	0.0152	1.91

CCN(c1cc(C#CCN2CCOCC2)cc(C(=O)NCc2c(C)cc(C)[nH]c2=O)c1C)[C@H]1CC[C@H](N(C)CCOC)CC1
CTG-3D luminescence at 96 h
Conditions	12.5 pM	0.00025 µM	0.005 µM	0.1 µM	1 µM	10 µM	100 µM	625 fM
HCI-002, days in culture: 62	3.56	3.06	4.04	3.68	3.25	3.56	3.84	3.54
HCI-002, days in culture: 82	3.83	3.88	2.98	3.77	3.86	3.46	2.82	3.6
HCI-002, days in culture: 91	3.18	2.62	2.38	2.44	2.39	2.58	2.11	3.17
HCI-002, days in culture: 191	3.6	3.27	3.28	3.84	3.37	3.62	3.54	3.51
HCI-002, days in culture: 209	2.93	3.11	2.59	2.63	2.93	2.64	2.79	2.8
HCI-002, days in culture: 227	4.96	4.84	4.63	5.11	4.67	5.77	4.2	5.52
HCI-012, days in culture: 143	1.91	2.56	2.37	2.99	3.02	3.17	0.606	1.86
HCI-012, days in culture: 162	2.51	2.39	1.97	2.73	2.39	3.19	1.69	2.39
HCI-012, days in culture: 201	2.85	2.09	1.92	2.18	2.33	1.83	2.37	1.64
HCI-023, days in culture: 111	1.69	1.38	1.47	1.39	1.14	1.42	0.673	2.1
HCI-023, days in culture: 128	1.51 ± 0.29	1.63 ± 0.46	1.57 ± 0.1	1.99 ± 0.051	1.77 ± 0.31	2.02 ± 0.27	1.09 ± 0.066	1.5 ± 0.32
HCI-024, days in culture: 105	1.44	1.62	1.27	1.53	1.77	2.22	1.53	1.42
HCI-024, days in culture: 122	1.71	2.29	2.04	1.85	2.34	3.46	1.5	2.18
HCI-024, days in culture: 163	1.65	2.26	1.77	2.62	2.29	2.35	1.91	1.9
HCI-025, days in culture: 172	2.86	2.03	3.74	2.35	2.66	1.89	2.28	2.74
HCI-025, days in culture: 209	2.08	3.04	2.37	1.7	2.53	1.47	1.54	2.18
HCI-025, days in culture: 218	1.66	1.66	1.76	1.73	1.43	2.1	1.58	1.76
